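All cell lines were grown in 96-well plates and treated with compound for 48 hours. GI50 is the concentration that inhibits growth by half.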 Activity calls are given as the source filed them. No stated cut-off is given here; in the data, active = GI50 up to about 1.1 µM and inactive = higher.
What was measured:
Test in all cases: DTP human tumour cell line panel, 48 h
A549 = test system: A549
786-0 = test system: 786-0
SR = test system: SR
NCI/ADR-RES = test system: NCI/ADR-RES
HT-29 = test system: HT-29
NCI-H460 = test system: NCI-H460
MDA-MB-435 = test system: MDA-MB-435
OVCAR-5 = test system: OVCAR-5
HCC 2998 = test system: HCC 2998
NCI-H23 = test system: NCI-H23
OVCAR-3 = test system: OVCAR-3
HL-60 = test system: HL-60
HCT-116 = test system: HCT-116
SK-MEL-5 = test system: SK-MEL-5
SK-OV-3 = test system: SK-OV-3
MDA-N = test system: MDA-N
ACHN = test system: ACHN
SF-539 = test system: SF-539
Malme-3M = test system: Malme-3M
SW-620 = test system: SW-620
Hs-578T = test system: Hs-578T
DU-145 = test system: DU-145
CCRF-CEM = test system: CCRF-CEM
IGROV-1 = test system: IGROV-1
LOX IMVI = test system: LOX IMVI
UO-31 = test system: UO-31
HCT-15 = test system: HCT-15
SN12C = test system: SN12C
BT-549 = test system: BT-549
SF-295 = test system: SF-295
NCI-H226 = test system: NCI-H226
HOP-92 = test system: HOP-92
OVCAR-8 = test system: OVCAR-8
A498 = test system: A498
CAKI-1 = test system: CAKI-1
TK-10 = test system: TK-10
UACC-257 = test system: UACC-257
K562 = test system: K562
MOLT-4 = test system: MOLT-4
KM12 = test system: KM12
SNB-19 = test system: SNB-19
RPMI-8226 = test system: RPMI-8226
COLO 205 = test system: COLO 205
OVCAR-4 = test system: OVCAR-4
M14 = test system: M14
MCF7 = test system: MCF7
UACC-62 = test system: UACC-62
EKVX = test system: EKVX
RXF 393 = test system: RXF 393
NCI-H522 = test system: NCI-H522
SK-MEL-28 = test system: SK-MEL-28
MDA-MB-231 = test system: MDA-MB-231
T47D = test system: T47D
SK-MEL-2 = test system: SK-MEL-2
HOP-62 = test system: HOP-62
PC-3 = test system: PC-3
SF-268 = test system: SF-268
U-251 = test system: U-251
SNB-75 = test system: SNB-75

## CC(C)C(=O)[C@@]1(C)SC[C@H]2CCN=C21
A549
  GI50: > 100 µM (inactive)
786-0
  GI50: > 100 µM (inactive)
SR
  GI50: 56.8 µM (inactive)
NCI/ADR-RES
  GI50: > 100 µM (inactive)
HT-29
  GI50: > 100 µM (inactive)
NCI-H460
  GI50: > 100 µM (inactive)
MDA-MB-435
  GI50: 25.1 µM (inactive)
OVCAR-5
  GI50: > 100 µM (inactive)
HCC 2998
  GI50: > 100 µM (inactive)
NCI-H23
  GI50: > 100 µM (inactive)
OVCAR-3
  GI50: > 100 µM (inactive)
HL-60
  GI50: > 100 µM (inactive)
HCT-116
  GI50: > 100 µM (inactive)
SK-MEL-5
  GI50: > 100 µM (inactive)
SK-OV-3
  GI50: > 100 µM (inactive)
MDA-N
  GI50: 34.8 µM (inactive)
ACHN
  GI50: > 100 µM (inactive)
SF-539
  GI50: > 100 µM (inactive)
Malme-3M
  GI50: 46.7 µM (inactive)
SW-620
  GI50: > 100 µM (inactive)
Hs-578T
  GI50: > 100 µM (inactive)
DU-145
  GI50: > 100 µM (inactive)
CCRF-CEM
  GI50: > 100 µM (inactive)
IGROV-1
  GI50: > 100 µM (inactive)
LOX IMVI
  GI50: > 100 µM (inactive)
UO-31
  GI50: 58.6 µM (inactive)
HCT-15
  GI50: > 100 µM
SN12C
  GI50: > 100 µM (inactive)
BT-549
  GI50: > 100 µM (inactive)
SF-295
  GI50: > 100 µM (inactive)
NCI-H226
  GI50: > 100 µM (inactive)
HOP-92
  GI50: 16.9 µM (inactive)
OVCAR-8
  GI50: > 100 µM (inactive)
A498
  GI50: 34.4 µM (inactive)
CAKI-1
  GI50: 17 µM (inactive)
TK-10
  GI50: > 100 µM (inactive)
UACC-257
  GI50: > 100 µM (inactive)
K562
  GI50: > 100 µM (inactive)
MOLT-4
  GI50: 42.9 µM (inactive)
KM12
  GI50: > 100 µM (inactive)
SNB-19
  GI50: > 100 µM (inactive)
RPMI-8226
  GI50: > 100 µM (inactive)
COLO 205
  GI50: > 100 µM (inactive)
OVCAR-4
  GI50: 74.6 µM (inactive)
M14
  GI50: 71 µM (inactive)
MCF7
  GI50: > 100 µM (inactive)
UACC-62
  GI50: 41.4 µM (inactive)
EKVX
  GI50: > 100 µM (inactive)
RXF 393
  GI50: 3.52 µM (inactive)
NCI-H522
  GI50: 52 µM (inactive)
SK-MEL-28
  GI50: > 100 µM (inactive)

## Clc1ccc(Cl)c(/N=N/c2cc3c4c(c2)CCCN4CCC3)c1
A549
  GI50: > 10 µM (inactive)
786-0
  GI50: > 10 µM (inactive)
MDA-MB-231
  GI50: > 10 µM (inactive)
T47D
  GI50: > 10 µM (inactive)
SR
  GI50: > 10 µM (inactive)
NCI/ADR-RES
  GI50: > 10 µM (inactive)
HT-29
  GI50: > 10 µM (inactive)
NCI-H460
  GI50: > 10 µM (inactive)
MDA-MB-435
  GI50: > 10 µM (inactive)
HCC 2998
  GI50: > 10 µM (inactive)
NCI-H23
  GI50: > 10 µM (inactive)
SK-MEL-2
  GI50: > 10 µM (inactive)
OVCAR-3
  GI50: > 10 µM (inactive)
HL-60
  GI50: 5 µM (inactive)
HCT-116
  GI50: > 10 µM (inactive)
SK-MEL-5
  GI50: > 10 µM (inactive)
SK-OV-3
  GI50: > 10 µM (inactive)
MDA-N
  GI50: > 10 µM (inactive)
ACHN
  GI50: > 10 µM (inactive)
HOP-62
  GI50: > 10 µM (inactive)
SF-539
  GI50: > 10 µM (inactive)
PC-3
  GI50: > 10 µM (inactive)
Malme-3M
  GI50: > 10 µM (inactive)
SW-620
  GI50: > 10 µM (inactive)
Hs-578T
  GI50: > 10 µM (inactive)
DU-145
  GI50: > 10 µM (inactive)
CCRF-CEM
  GI50: > 10 µM (inactive)
IGROV-1
  GI50: > 10 µM (inactive)
LOX IMVI
  GI50: > 10 µM (inactive)
UO-31
  GI50: > 10 µM (inactive)
HCT-15
  GI50: > 10 µM
SN12C
  GI50: > 10 µM (inactive)
SF-268
  GI50: > 10 µM (inactive)
SF-295
  GI50: > 10 µM (inactive)
U-251
  GI50: > 10 µM (inactive)
NCI-H226
  GI50: > 10 µM (inactive)
HOP-92
  GI50: > 10 µM (inactive)
OVCAR-8
  GI50: > 10 µM (inactive)
A498
  GI50: > 10 µM (inactive)
CAKI-1
  GI50: > 10 µM (inactive)
TK-10
  GI50: > 10 µM (inactive)
UACC-257
  GI50: > 10 µM (inactive)
SNB-75
  GI50: > 10 µM (inactive)
K562
  GI50: > 10 µM (inactive)
MOLT-4
  GI50: > 10 µM (inactive)
KM12
  GI50: > 10 µM (inactive)
SNB-19
  GI50: > 10 µM (inactive)
RPMI-8226
  GI50: > 10 µM (inactive)
COLO 205
  GI50: > 10 µM (inactive)
OVCAR-4
  GI50: > 10 µM (inactive)
M14
  GI50: > 10 µM (inactive)
MCF7
  GI50: > 10 µM (inactive)
UACC-62
  GI50: > 10 µM (inactive)
EKVX
  GI50: > 10 µM (inactive)
RXF 393
  GI50: > 10 µM (inactive)
NCI-H522
  GI50: > 10 µM (inactive)
SK-MEL-28
  GI50: > 10 µM (inactive)

Source: ChEMBL document CHEMBL1201862, “PubChem BioAssay data set” (2004)
